{"source": "patent EP1126030A1", "about": "“THIOREDOXIN REDUCTASE II” (priority 1998, dated 2000)", "target": "T1, flag-tag fused TxRIIα protein (Homo sapiens, UniProt Q9NNW7)", "T1 construct": "made in house", "T1 sequence (Q9NNW7 37-524)": "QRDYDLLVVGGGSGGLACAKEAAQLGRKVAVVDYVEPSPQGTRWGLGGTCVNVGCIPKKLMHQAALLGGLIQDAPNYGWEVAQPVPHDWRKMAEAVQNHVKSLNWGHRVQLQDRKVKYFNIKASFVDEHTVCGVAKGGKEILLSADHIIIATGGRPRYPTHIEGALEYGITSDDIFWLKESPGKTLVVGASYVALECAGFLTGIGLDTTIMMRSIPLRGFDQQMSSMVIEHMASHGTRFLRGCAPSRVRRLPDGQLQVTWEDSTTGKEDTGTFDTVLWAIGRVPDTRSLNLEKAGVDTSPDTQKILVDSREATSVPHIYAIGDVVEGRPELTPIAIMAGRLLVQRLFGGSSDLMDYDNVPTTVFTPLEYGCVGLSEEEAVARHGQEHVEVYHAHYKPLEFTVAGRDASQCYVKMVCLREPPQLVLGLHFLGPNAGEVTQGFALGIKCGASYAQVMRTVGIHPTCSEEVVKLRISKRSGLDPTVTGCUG", "experiment": "Inhibitor assay (DTNB assay of TxR activity)", "type": "biochemical", "conditions": "diluted series of inhibitor; 1 µM flag-tag fused TxRIIα protein, 1 mM NADPH, 10 mM DTNB, pH 7.2; absorbance at 412 nm at 25°C for 5 min (Figure 5)", "description": "DTNB assay is a method in which TNB caused by the TxR activity from DTNB is measured by the absorbance of a thiol at 412 nm based on the following reaction formula. The purified tag fused TxRIIα protein (1 to 50 µl) was added to the assay buffer 1 to mess up to 1.0 ml. The absorbance at 412 nm was measured at 25°C for 5 min (Figure 3). DTNB + NADPH + H^+ 2TNB + NADP^+\n100 mM potassium phosphate pH 7.0, 10 mM EDTA, 0.25 mM NADPH, 0.2 mg/ml bovine serum albumin (BSA), 1% ethanol, 1 mM DTNB\nTo compare an enzyme activity of the TxRIIs by the present invention, obtained as a recombinant, and an activity of the natural TxR, an effect of an inhibitor was observed. As an inhibitor for the TxR activity, 1-chloro-2, 4-dinitrobenzene (CDNB) and 13-cis-retinoic acid was used. For confirming the TxR activity, the DTNB assay was used.\nThe diluted series of the inhibitors was prepared with 0.2 ml of HE buffer (100 mM HEPES buffer pH 7.2, 5 mM EDTA) . The tag-fused TxRIIαprotein was prepared at 3 µM and 0.2 ml thereof was added thereto, then 0.2 ml of HE buffer containing 3 mM NADPH and 30 mM DTNB was added thereto. The reaction system of this solution is composed of 100 mM HEPES buffer pH 7.2, 5 mM EDTA, 1 µM flag-tag fused TxRIIα protein, 1 mM NADPH, and 10 mM DTNB. The […] was measured by absorbance of a thiol at 412 nm at 25°C for 5min.", "data": [{"smiles": "CC1=C(/C=C/C(C)=C/C=C/C(C)=C\\C(=O)O)C(C)(C)CCC1", "note": "[13-cis retinoic acid, 13-cis-retinoic acid]", "values": [{"measurement": "inhibition of the TxR activity of the purified flag-tag fused TxRIIα protein", "value": "effectively inhibited"}]}, {"smiles": "O=[N+]([O-])c1ccc(Cl)c([N+](=O)[O-])c1", "note": "[CDNB, 1-chloro-2,4-dinitrobenzene]", "values": [{"measurement": "inhibition of the TxR activity of the purified flag-tag fused TxRIIα protein", "value": "effectively inhibited"}]}]}
